Source: publication PMC12361428 (Nature Communications, 2025)
Changes are numbered by the printed parent chain. Several values for one entry are separate records, joined by “and”; a condition that tells them apart may be missing. Equal values may be shown once.

Legend:
Nluc-A3AR WT = target: T1, Nluc-A3AR WT (Homo sapiens, UniProt P0DMS8); assay: biochemical; format: binding; conditions: WT, read-out: normalised XAC-630 binding
T1 construct: expressed in transfected cells; host or cells: HEK293a
Protocol: (§1) All experiments were performed in duplicate.
(§2) Data were expressed as the mean ± standard error. All binding and Trupath data were analysed using the nonlinear regression curve-fitting programme with Prism 10 (GraphPad, San Diego, CA, USA). For nanoBRET saturation binding experiments, specific binding was calculated by subtracting non-specific binding (defined as binding in the presence of 10 µM MRS1220) from total binding. Specific binding data in each experiment were then normalised to the maximal binding (Bmax) of WT and fit to a one-site specific binding equation: Y =Bmax*[X]/(Kd + [X]). For nanoBRET competition binding experiments, data were normalised to total and non-specific binding responses and fit to a one-site—Fit Ki equation. […] Significant differences vs WT were determined by one-way ANOVA with a Dunnett’s multiple comparison test.

Nluc-A3AR Y15A^1.35 = target: T2, Nluc-A3AR Y15A^1.35 (Homo sapiens, UniProt P0DMS8, Y15A); assay: biochemical; format: binding; conditions: Y15A; log[adenosine] -8; read-out: normalised XAC-630 binding
T2 construct: expressed in transfected cells; host or cells: HEK293a
T2 sequence (P0DMS8 whole entry Y15A): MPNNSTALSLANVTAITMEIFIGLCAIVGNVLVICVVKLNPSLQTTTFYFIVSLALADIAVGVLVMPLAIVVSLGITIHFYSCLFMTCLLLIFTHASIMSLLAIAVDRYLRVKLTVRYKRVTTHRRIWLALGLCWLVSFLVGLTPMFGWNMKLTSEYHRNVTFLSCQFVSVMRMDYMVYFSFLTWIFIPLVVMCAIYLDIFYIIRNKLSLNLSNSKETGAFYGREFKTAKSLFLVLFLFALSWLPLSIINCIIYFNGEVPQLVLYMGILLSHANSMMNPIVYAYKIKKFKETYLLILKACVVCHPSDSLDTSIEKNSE
Protocol: as §1
(§3) Data were expressed as the mean ± standard error. All binding and Trupath data were analysed using the nonlinear regression curve-fitting programme with Prism 10 (GraphPad, San Diego, CA, USA). For nanoBRET saturation binding experiments, specific binding was calculated by subtracting non-specific binding (defined as binding in the presence of 10 µM MRS1220) from total binding. Specific binding data in each experiment were then normalised to the maximal binding (Bmax) of WT and fit to a one-site specific binding equation: Y =Bmax*[X]/(Kd + [X]). For nanoBRET competition binding experiments, data were normalised to total and non-specific binding responses and fit to a one-site—Fit Ki equation. Trupath's experimental data was baseline-corrected to the initial four baseline reads and then adjusted to the buffer control response. The area under the curve (AUC) for each response was calculated and plotted with a non-linear regression curve (log[agonist] vs response, three-parameter model), using the equation: Y = Bottom + (Top–Bottom)/(1 + 10^((LogEC50-X))). Here, X represents the log dose of the agonist, Y is the BRET2 AUC response, Top and Bottom are the curve plateaus, and EC50 is the agonist concentration yielding a response halfway between the Bottom and Top values. […] The efficacy of the agonists (τA) was separately calculated using the Black–Leff operational model of agonism[79] using KA values from Table 2 and then corrected for receptor expression relative to WT using Bmax values from Table 1[80]. Significant differences vs WT were determined by one-way ANOVA with a Dunnett’s multiple comparison test.

Nluc-A3AR S73A^2.65 = target: T3, Nluc-A3AR S73A^2.65 (Homo sapiens, UniProt P0DMS8, S73A); assay: biochemical; format: binding; conditions: S73A, read-out: normalised XAC-630 binding
T3 construct: expressed in transfected cells; host or cells: HEK293a
T3 sequence (P0DMS8 whole entry S73A): as the sequence (P0DMS8 whole entry Y15A) above, with A15Y, S73A counted along it
Protocol: as §1, §2

Nluc-A3AR T94A^3.36 = target: T4, Nluc-A3AR T94A^3.36 (Homo sapiens, UniProt P0DMS8, T94A); assay: biochemical; format: binding; conditions: T94A, read-out: normalised XAC-630 binding
T4 construct: expressed in transfected cells; host or cells: HEK293a
T4 sequence (P0DMS8 whole entry T94A): as the sequence (P0DMS8 whole entry Y15A) above, with A15Y, T94A counted along it
Protocol: as §1, §3

Nluc-A3AR H95A^3.37 = target: T5, Nluc-A3AR H95A^3.37 (Homo sapiens, UniProt P0DMS8, H95A); assay: biochemical; format: binding; conditions: H95A, read-out: normalised XAC-630 binding
T5 construct: expressed in transfected cells; host or cells: HEK293a
T5 sequence (P0DMS8 whole entry H95A): as the sequence (P0DMS8 whole entry Y15A) above, with A15Y, H95A counted along it
Protocol: as §1
(§4) Data were expressed as the mean ± standard error. All binding and Trupath data were analysed using the nonlinear regression curve-fitting programme with Prism 10 (GraphPad, San Diego, CA, USA). For nanoBRET saturation binding experiments, specific binding was calculated by subtracting non-specific binding (defined as binding in the presence of 10 µM MRS1220) from total binding. Specific binding data in each experiment were then normalised to the maximal binding (Bmax) of WT and fit to a one-site specific binding equation: Y =Bmax*[X]/(Kd + [X]). For nanoBRET competition binding experiments, data were normalised to total and non-specific binding responses and fit to a one-site—Fit Ki equation. Trupath's experimental data was baseline-corrected to the initial four baseline reads and then adjusted to the buffer control response. The area under the curve (AUC) for each response was calculated and plotted with a non-linear regression curve (log[agonist] vs response, three-parameter model), using the equation: Y = Bottom + (Top–Bottom)/(1 + 10^((LogEC50-X))). Here, X represents the log dose of the agonist, Y is the BRET2 AUC response, Top and Bottom are the curve plateaus, and EC50 is the agonist concentration yielding a response halfway between the Bottom and Top values. […] Significant differences vs WT were determined by one-way ANOVA with a Dunnett’s multiple comparison test. Significance levels are indicated as follows: P ≤ 0.0001****, P = 0.0001–0.001***, P = 0.001–0.01**, and P = 0.01–0.05*.

Nluc-A3AR H95F^3.37 = target: T6, Nluc-A3AR H95F^3.37 (Homo sapiens, UniProt P0DMS8, H95F); assay: biochemical; format: binding; conditions: H95F; log[adenosine] -8; read-out: normalised XAC-630 binding
T6 construct: expressed in transfected cells; host or cells: HEK293a
T6 sequence (P0DMS8 whole entry H95F): as the sequence (P0DMS8 whole entry Y15A) above, with A15Y, H95F counted along it
Protocol: as §1, §4

Nluc-A3AR V169E^45.53 = target: T7, Nluc-A3AR V169E^45.53 (Homo sapiens, UniProt P0DMS8, V169E); assay: biochemical; format: binding; conditions: V169E, read-out: normalised XAC-630 binding
T7 construct: expressed in transfected cells; host or cells: HEK293a
T7 sequence (P0DMS8 whole entry V169E): as the sequence (P0DMS8 whole entry Y15A) above, with A15Y, V169E counted along it
Protocol: as §1, §4

Nluc-A3AR M174A^5.35 = target: T8, Nluc-A3AR M174A^5.35 (Homo sapiens, UniProt P0DMS8, M174A); assay: biochemical; format: binding; conditions: M174A, read-out: normalised XAC-630 binding
T8 construct: expressed in transfected cells; host or cells: HEK293a
T8 sequence (P0DMS8 whole entry M174A): as the sequence (P0DMS8 whole entry Y15A) above, with A15Y, M174A counted along it
Protocol: as §1, §3

Nluc-A3AR Y265A^7.36 = target: T9, Nluc-A3AR Y265A^7.36 (Homo sapiens, UniProt P0DMS8, Y265A); assay: biochemical; format: binding; conditions: Y265A, read-out: normalised XAC-630 binding
T9 construct: expressed in transfected cells; host or cells: HEK293a
T9 sequence (P0DMS8 whole entry Y265A): as the sequence (P0DMS8 whole entry Y15A) above, with A15Y, Y265A counted along it
Protocol: as §1, §3

Nluc-A3AR S271A^7.42 = target: T10, Nluc-A3AR S271A^7.42 (Homo sapiens, UniProt P0DMS8, S271A); assay: biochemical; format: binding; conditions: S271A, read-out: normalised XAC-630 binding
T10 construct: expressed in transfected cells; host or cells: HEK293a
T10 sequence (P0DMS8 whole entry S271A): as the sequence (P0DMS8 whole entry Y15A) above, with A15Y, S271A counted along it
Protocol: as §1, §2

A3AR WT = target: T11, A3AR WT (Homo sapiens, UniProt P0DMS8); assay: Gαi1 activation, TruPath BRET assay in HEK293a cells; format: cell-based
T11 construct: expressed in transfected cells; host or cells: HEK293a
T11 sequence (P0DMS8 1-318): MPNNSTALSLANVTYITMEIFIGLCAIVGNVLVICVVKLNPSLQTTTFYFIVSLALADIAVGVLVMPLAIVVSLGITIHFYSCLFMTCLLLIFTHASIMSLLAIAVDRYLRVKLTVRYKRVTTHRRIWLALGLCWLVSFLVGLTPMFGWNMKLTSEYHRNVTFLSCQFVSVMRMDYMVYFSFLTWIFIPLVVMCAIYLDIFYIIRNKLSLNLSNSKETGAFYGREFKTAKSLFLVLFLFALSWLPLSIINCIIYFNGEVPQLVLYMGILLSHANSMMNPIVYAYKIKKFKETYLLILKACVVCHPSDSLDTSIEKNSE
Protocol: (§5) PEI was added at a 6:1 PEI-to-DNA ratio. Two days post-transfection, plates were washed twice with BRET buffer (HBSS with 10 mM HEPES, pH 7.4). After a 30-min incubation at 37 °C, plates were placed in a PHERAstar plate reader at 37 °C, and four baseline readings were taken using BRET2 filters at 410 ± 80 nm and 515 ± 30 nm. […] BRET2 ratios were calculated as the ratio of GFP2 emission (515 ± 30 nm) to RLuc8 emission (410 ± 80 nm).
(§6) Data were expressed as the mean ± standard error. All binding and Trupath data were analysed using the nonlinear regression curve-fitting programme with Prism 10 (GraphPad, San Diego, CA, USA). For nanoBRET saturation binding experiments, specific binding was calculated by subtracting non-specific binding (defined as binding in the presence of 10 µM MRS1220) from total binding. Specific binding data in each experiment were then normalised to the maximal binding (Bmax) of WT and fit to a one-site specific binding equation: Y =Bmax*[X]/(Kd + [X]). For nanoBRET competition binding experiments, data were normalised to total and non-specific binding responses and fit to a one-site—Fit Ki equation. Trupath's experimental data was baseline-corrected to the initial four baseline reads and then adjusted to the buffer control response. The area under the curve (AUC) for each response was calculated and plotted with a non-linear regression curve (log[agonist] vs response, three-parameter model), using the equation: Y = Bottom + (Top–Bottom)/(1 + 10^((LogEC50-X))). Here, X represents the log dose of the agonist, Y is the BRET2 AUC response, Top and Bottom are the curve plateaus, and EC50 is the agonist concentration yielding a response halfway between the Bottom and Top values. To determine efficacy values. The efficacy of the agonists (τA) was separately calculated using the Black–Leff operational model of agonism[79] using KA values from Table 2 and then corrected for receptor expression relative to WT using Bmax values from Table 1[80]. Significant differences vs WT were determined by one-way ANOVA with a Dunnett’s multiple comparison test. Significance levels are indicated as follows: P ≤ 0.0001****, P = 0.0001–0.001***, P = 0.001–0.01**, and P = 0.01–0.05*.

A3AR S73A^2.65 = target: T12, A3AR S73A^2.65 (Homo sapiens, UniProt P0DMS8, S73A); assay: as above; format: cell-based
T12 construct: expressed in transfected cells; host or cells: HEK293a
T12 sequence (P0DMS8 whole entry S73A): as the sequence (P0DMS8 whole entry Y15A) above, with A15Y, S73A counted along it
Protocol: (§7) Two days post-transfection, plates were washed twice with BRET buffer (HBSS with 10 mM HEPES, pH 7.4). After a 30-min incubation at 37 °C, plates were placed in a PHERAstar plate reader at 37 °C, and four baseline readings were taken using BRET2 filters at 410 ± 80 nm and 515 ± 30 nm. […] BRET2 ratios were calculated as the ratio of GFP2 emission (515 ± 30 nm) to RLuc8 emission (410 ± 80 nm).
(§8) Data were expressed as the mean ± standard error. All binding and Trupath data were analysed using the nonlinear regression curve-fitting programme with Prism 10 (GraphPad, San Diego, CA, USA). […] Trupath's experimental data was baseline-corrected to the initial four baseline reads and then adjusted to the buffer control response. The area under the curve (AUC) for each response was calculated and plotted with a non-linear regression curve (log[agonist] vs response, three-parameter model), using the equation: Y = Bottom + (Top–Bottom)/(1 + 10^((LogEC50-X))). Here, X represents the log dose of the agonist, Y is the BRET2 AUC response, Top and Bottom are the curve plateaus, and EC50 is the agonist concentration yielding a response halfway between the Bottom and Top values. […] Significant differences vs WT were determined by one-way ANOVA with a Dunnett’s multiple comparison test.

A3AR M174A^5.35 = target: T13, A3AR M174A^5.35 (Homo sapiens, UniProt P0DMS8, M174A); assay: as above; format: cell-based
T13 construct: expressed in transfected cells; host or cells: HEK293a
T13 sequence (P0DMS8 whole entry M174A): as the sequence (P0DMS8 whole entry Y15A) above, with A15Y, M174A counted along it
Protocol: as §7, §8

A3AR H272A^7.43 = target: T14, A3AR H272A^7.43 (Homo sapiens, UniProt P0DMS8, H272A); assay: as above; format: cell-based
T14 construct: expressed in transfected cells; host or cells: HEK293a
T14 sequence (P0DMS8 1-318 H272A): T11 sequence (P0DMS8 1-318) with H272A
Protocol: as §5, §6

A3AR S271A^7.42 = A3AR S271A^7.42 (Homo sapiens, UniProt P0DMS8, S271A); assay: as above
Sequence of A3AR S271A^7.42 (P0DMS8 whole entry S271A): as the sequence (P0DMS8 whole entry Y15A) above, with A15Y, S271A counted along it
Protocol: as §7, §8

Nc1ncnc2c1ncn2[C@@H]1O[C@H](CO)[C@@H](O)[C@H]1O [Adenosine, adenosine]
remaining activity at 1 µM (Nluc-A3AR WT; log[adenosine] -6): 103% | remaining activity at 0.1 µM (Nluc-A3AR WT; log[adenosine] -7): 102% | remaining activity at 0.01 µM (Nluc-A3AR WT; log[adenosine] -8): 100% | remaining activity at 0.01 µM (Nluc-A3AR Y15A^1.35): 100% | remaining activity at 10 µM (Nluc-A3AR S73A^2.65; log[adenosine] -5): 82.6% | remaining activity at 1 µM (Nluc-A3AR S73A^2.65; log[adenosine] -6): 100% | remaining activity at 0.1 µM (Nluc-A3AR S73A^2.65; log[adenosine] -7): 100% | remaining activity at 0.01 µM (Nluc-A3AR S73A^2.65; log[adenosine] -8): 100% | remaining activity at 1 µM (Nluc-A3AR T94A^3.36; log[adenosine] -6): 100% | remaining activity at 0.1 µM (Nluc-A3AR T94A^3.36; log[adenosine] -7): 103% | remaining activity at 0.01 µM (Nluc-A3AR T94A^3.36; log[adenosine] -8): 100% | remaining activity at 1000 µM (Nluc-A3AR H95A^3.37; log[adenosine] -3): 24% | remaining activity at 100 µM (Nluc-A3AR H95A^3.37; log[adenosine] -4): 82.5% | remaining activity at 10 µM (Nluc-A3AR H95A^3.37; log[adenosine] -5): 97.8% | remaining activity at 1 µM (Nluc-A3AR H95A^3.37; log[adenosine] -6): 105% | remaining activity at 0.1 µM (Nluc-A3AR H95A^3.37; log[adenosine] -7): 95.8% | remaining activity at 0.01 µM (Nluc-A3AR H95A^3.37; log[adenosine] -8): 100% | remaining activity at 0.01 µM (Nluc-A3AR H95F^3.37): 100% | remaining activity at 100 µM (Nluc-A3AR V169E^45.53; log[adenosine] -4): 37.3% | remaining activity at 10 µM (Nluc-A3AR V169E^45.53; log[adenosine] -5): 78.7% | remaining activity at 1 µM (Nluc-A3AR V169E^45.53; log[adenosine] -6): 98% | remaining activity at 0.1 µM (Nluc-A3AR V169E^45.53; log[adenosine] -7): 95.5% | remaining activity at 0.01 µM (Nluc-A3AR V169E^45.53; log[adenosine] -8): 100% | remaining activity at 1 µM (Nluc-A3AR M174A^5.35; log[adenosine] -6): 100% | remaining activity at 0.01 µM (Nluc-A3AR M174A^5.35; log[adenosine] -8): 101% | remaining activity at 100 µM (Nluc-A3AR Y265A^7.36; log[adenosine] -4): 69.6% | remaining activity at 10 µM (Nluc-A3AR Y265A^7.36; log[adenosine] -5): 94.1% | remaining activity at 1 µM (Nluc-A3AR Y265A^7.36; log[adenosine] -6): 97.4% | remaining activity at 0.1 µM (Nluc-A3AR Y265A^7.36; log[adenosine] -7): 99.2% | remaining activity at 0.01 µM (Nluc-A3AR Y265A^7.36; log[adenosine] -8): 100% | remaining activity at 1000 µM (Nluc-A3AR S271A^7.42; log[adenosine] -3): 90.4% | remaining activity at 100 µM (Nluc-A3AR S271A^7.42; log[adenosine] -4): 102% | remaining activity at 10 µM (Nluc-A3AR S271A^7.42; log[adenosine] -5): 100% | remaining activity at 1 µM (Nluc-A3AR S271A^7.42; log[adenosine] -6): 104% | remaining activity at 0.1 µM (Nluc-A3AR S271A^7.42; log[adenosine] -7): 105% | remaining activity at 0.01 µM (Nluc-A3AR S271A^7.42; log[adenosine] -8): 100% | log τ (efficacy, operational model, corrected for receptor expression) (A3AR WT): 1.6 ± 0.2 | ∆∆BRET Emax (A3AR WT): 0.89 ± 0.08 | Gαi1 activation response (Figure 7F), individual replicates (A3AR WT; log [agonist] -3): 1.106 and 0.8834 and 0.9675 | Gαi1 activation response (Figure 7F), individual replicates (A3AR WT; log [agonist] -4): 0.9524 and 0.7958 and 0.9068 | Gαi1 activation response (Figure 7F), individual replicates (A3AR WT; log [agonist] -5): 0.9676 and 0.6508 and 0.8035 | Gαi1 activation response (Figure 7F), individual replicates (A3AR WT; log [agonist] -6): 0.8382 and 0.5159 and 0.6976 | Gαi1 activation response (Figure 7F), individual replicates (A3AR WT; log [agonist] -7): 0.312 and 0.3966 and 0.3849 | Gαi1 activation response (Figure 7F), individual replicates (A3AR WT; log [agonist] -8): 0.0509 and 0.08839 and 0.07483 | Gαi1 activation response (Figure 7F), individual replicates (A3AR WT; log [agonist] -9): 0.1 and 0.05123 and 0.04435 | log τ (efficacy, operational model, corrected for receptor expression) (A3AR S73A^2.65): 1.4 ± 0.07 | ∆∆BRET Emax (A3AR S73A^2.65): 1.49 ± 0.04 | log τ (efficacy, operational model, corrected for receptor expression) (A3AR M174A^5.35): -0.1 ± 0.2 | ∆∆BRET Emax (A3AR M174A^5.35): 1.35 ± 0.01 | log τ (efficacy, operational model, corrected for receptor expression) (A3AR H272A^7.43): N.R. | ∆∆BRET Emax (A3AR H272A^7.43): N.R | Gαi1 activation response (Figure 7F), individual replicates (A3AR H272A^7.43; log [agonist] -3): 0.105 and 0.09941 | Gαi1 activation response (Figure 7F), individual replicates (A3AR H272A^7.43; log [agonist] -4): 0.06736 and 0.02567 and 0.03084 | Gαi1 activation response (Figure 7F), individual replicates (A3AR H272A^7.43; log [agonist] -5): 0.05631 and 0.02851 and 0.01939 | Gαi1 activation response (Figure 7F), individual replicates (A3AR H272A^7.43; log [agonist] -6): 0.03915 and 0.06464 and 0.04347 | Gαi1 activation response (Figure 7F), individual replicates (A3AR H272A^7.43; log [agonist] -7): 0.04202 and 0.01796 and 0.03024 | Gαi1 activation response (Figure 7F), individual replicates (A3AR H272A^7.43; log [agonist] -8): 0.03672 and 0.03614 and 0.07396 | Gαi1 activation response (Figure 7F), individual replicates (A3AR H272A^7.43; log [agonist] -9): 0.03473 and 0.04344 and 0.05169 | ∆∆BRET Emax (A3AR S271A^7.42): 0.70 ± 0.15
